From patent US20110195432A1, “METHODS FOR THE SELECTION OF THERAPEUTIC TREATMENTS FOR CANCER” (priority 2008, published 2011)
“Also recorded” adds a separate entry of the source.

How the values were obtained:
PSA and TMPRSS2-ERG = details: VCaP cells; 24 hours; increasing doses; vehicle set to 1
Experimental: To determine the functional consequences of sulforaphane-mediated reduction in AR protein levels, real-time PCR was conducted for several AR target genes, including PSA and the TMPRSS2-ERG gene fusion present in VCaP cells (FIGS. 5A-C). Cells were lysed in Trizol (Invitrogen, Carlsbad, Calif.) and then purified with the RNAEasy Kit (Qiagen, Valencia, Calif.). One μg of RNA was reverse-transcribed using the Omniscript RT kit (Qiagen, Valencia, Calif.). Real-time PCR primer sequences and conditions were as follows.
The real-time PCR program consisted of: 50° C. for 2 minutes for 1 cycle; 95° C. for 10 minutes for 1 cycle; 95° C. for 15 seconds and 60° C. for 15 seconds for a total of 40 cycles. Standard curves were generated by measuring expression of target genes and 18S rRNA in serial dilutions of a mock-treated control. All samples were run in triplicate. The vehicle-treated sample was set to 1.

HDAC6 [1] = test: Western blot of HDAC6 protein levels, LNCaP cells; type: cell-based
AR = test: Western blot of AR protein levels, VCaP cells; type: cell-based; details: 24 hours
Source text: X-ray exposures were scanned as uncompressed images and bands were quantified by densitometry with Quantity One software (Bio-Rad, Hercules, Calif.). Intensity values were normalized to those of the endogenous controls. The vehicle sample was set to 1.

HDAC6 [2] = details: LNCaP cells; sulforaphane versus vehicle
Experimental: All samples were run in triplicate. The vehicle-treated sample was set to 1.
LNCaP cells were transiently transfected with pCDNA3.1 empty vector (Invitrogen, Carlsbad, Calif.) or FLAG-tagged HDAC6 expression vector (Addgene, Cambridge, Mass.) using Lipofectamine LTX and Plus reagents (Invitrogen, Carlsbad, Calif.). Forty-eight hours later, media was replaced for a 16-hour treatment with […] sulforaphane or vehicle. Levels of FLAG, HDAC6, AR, acetylated alpha-tubulin, and actin were measured by Western blot.

recombinant HDAC6 = biological target: T1, recombinant HDAC6 (Homo sapiens, UniProt Q9UBN7); details: cell-free; 7.5 or 15 μM sulforaphane, or 400 nM TSA; versus vehicle-treated HDAC6 control
T1 sequence (Q9UBN7 1-1215): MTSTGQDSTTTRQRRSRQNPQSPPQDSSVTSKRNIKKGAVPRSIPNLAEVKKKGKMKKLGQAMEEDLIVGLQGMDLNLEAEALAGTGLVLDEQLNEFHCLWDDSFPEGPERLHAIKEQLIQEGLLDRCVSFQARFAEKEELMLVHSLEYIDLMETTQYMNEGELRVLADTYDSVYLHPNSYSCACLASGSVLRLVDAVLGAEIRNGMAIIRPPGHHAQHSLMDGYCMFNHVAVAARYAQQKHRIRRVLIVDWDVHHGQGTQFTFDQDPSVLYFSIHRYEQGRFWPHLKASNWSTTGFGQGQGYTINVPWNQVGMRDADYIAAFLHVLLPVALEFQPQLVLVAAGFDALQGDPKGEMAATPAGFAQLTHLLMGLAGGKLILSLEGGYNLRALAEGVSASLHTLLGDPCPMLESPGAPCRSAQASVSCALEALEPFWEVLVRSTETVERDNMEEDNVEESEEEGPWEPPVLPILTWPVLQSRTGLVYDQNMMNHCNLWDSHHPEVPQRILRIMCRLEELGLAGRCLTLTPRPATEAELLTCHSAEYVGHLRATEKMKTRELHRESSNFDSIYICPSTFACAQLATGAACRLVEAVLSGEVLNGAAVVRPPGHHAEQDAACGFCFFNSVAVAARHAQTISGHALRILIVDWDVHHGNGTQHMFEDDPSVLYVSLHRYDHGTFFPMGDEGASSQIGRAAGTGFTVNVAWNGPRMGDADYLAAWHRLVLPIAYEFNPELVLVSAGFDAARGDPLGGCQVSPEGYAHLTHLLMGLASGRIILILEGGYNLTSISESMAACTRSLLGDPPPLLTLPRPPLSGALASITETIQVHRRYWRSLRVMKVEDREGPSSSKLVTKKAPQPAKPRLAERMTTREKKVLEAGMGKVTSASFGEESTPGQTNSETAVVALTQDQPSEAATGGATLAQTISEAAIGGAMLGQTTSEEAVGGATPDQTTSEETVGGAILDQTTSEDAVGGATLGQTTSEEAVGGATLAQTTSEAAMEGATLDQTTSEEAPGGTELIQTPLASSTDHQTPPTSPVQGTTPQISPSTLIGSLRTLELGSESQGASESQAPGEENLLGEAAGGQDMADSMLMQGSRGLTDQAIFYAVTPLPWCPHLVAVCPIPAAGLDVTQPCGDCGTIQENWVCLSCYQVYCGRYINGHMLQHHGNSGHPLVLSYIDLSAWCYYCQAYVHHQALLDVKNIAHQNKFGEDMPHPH

acetylated alpha-tubulin = test: Western blot of acetylated alpha-tubulin, LNCaP cells; type: cell-based
Experimental: The vehicle sample was set to 1.
LNCaP cells were transiently transfected with either a siRNA sequence complementary to the luciferase gene ([…]; SEQ ID NO: 8) or to HDAC6 ([…]; SEQ ID NO: 9) using DharmaFECT 3 transfection reagent for a final concentration of 100 nM (Dharmacon, Lafayette, Colo.). At 48, 72, and 96 hours post-transfection, cells were harvested. Levels of protein expression by Western blot were quantified.

[3] = FLAG-HDAC6 transfected LNCaP cells, sulforaphane-treated, versus empty-vector, sulforaphane-treated cells
[4] = empty-vector transfected LNCaP cells, 16-hour treatment with 15 nM sulforaphane versus vehicle

## C[S+]([O-])CCCCN=C=S (stereo not shown) [sulforaphane, 1-Isothiocyanato-4-methylsulfinylbutane]
PSA and TMPRSS2-ERG
  AR target gene expression (PSA, TMPRSS2-ERG): dose-dependent reduction
HDAC6 [1]; 16 hours
  HDAC6 protein levels at later time points: reduced HDAC6 protein levels
HDAC6 [1]; [3]
  HDAC6 protein expression in HDAC6-over-expressing cells: restored
HDAC6 [1]; LNCaP cells, 16 hours, 20 μM sulforaphane with 20 μM MG132 versus sulforaphane-treated cells
  HDAC6 protein levels with concomitant proteasome inhibitor: restored HDAC6 protein levels
HDAC6 [1]; LNCaP cells, early time point, 4 hours, versus vehicle
  levels of HDAC6 in input whole cell lysate: similar; also recorded: without changing its levels
HDAC6 [1]; [4]
  HDAC6 protein levels: reduced
AR; 20 μM sulforaphane, treated in parallel with ChIP
  levels of AR protein in whole cell lysates: near absent levels
AR; all sulforaphane dose levels
  AR protein levels: declined
HDAC6 [2]
  HDAC6 transcript levels: reduce HDAC6 transcript levels
Recombinant HDAC6
  HDAC6 deacetylase activity on tubulin: decreased HDAC6 deacetylase activity; also recorded: inhibited HDAC6 deacetylase activity
Acetylated alpha-tubulin; [3]
  alpha-tubulin acetylation in HDAC6-over-expressing cells: blunted
Acetylated alpha-tubulin; [4]
  acetylated tubulin: increased
Acetylated alpha-tubulin; sulforaphane 20 μM, 4 hours, versus vehicle
  levels of acetylated tubulin in input whole cell lysate: increased levels of acetylated alpha-tubulin
